Series [1] is described as follows: Acute toxicity in the guinea pig (DL50, Litchfield and Wilcoxon method). Conditions: in vivo. On the procedure: (§1) where R is as defined above, in the presence of an alkaline carbonate and of a catalyst, to obtain the corresponding formula (I) compound, as defined above, which, optionally, is salified. The new formula (I) compounds and their pharmaceutically acceptable salts, which form the object of this invention, have expectorant characteristics which are very useful for therapeutic applications. […] The peak level in the blood is reached 20-40 minutes after oral administration. This determines higher concentrations of active principle. With dogs, the half-life of the new derivatives in the blood is from 25-30 hours. It is also to be underlined that the new compounds are stable in both the stomach and the intestinal tract, hydrolizing after being absorbed. The complete reliability of the new compounds was determined by evaluating their acute toxicity. Acute toxicity was studies in the mouse, rat and guinea pig, comparing with ambroxol hydrochloride. The DL50 values were calculated by following the Litchfield and Wilcoxon method (Pharm. Exp. Therap. 1949, 96,99).

Series [2] in a line: Acute toxicity in the mouse (DL50, Litchfield and Wilcoxon method). In kind it is in vivo. Conditions: in vivo. As for the experimental part: as §1
A short description of series [3]: Acute toxicity in the rat (DL50, Litchfield and Wilcoxon method). To be noted: in vivo. As for the experimental part:
as §1

In series [4] the test system is mouse. Put plainly: Acute toxicity in the mouse (DL50, Litchfield and Wilcoxon method). It counts as in vivo. Conditions: os. As for the experimental part:
as §1

Molecules are shown by their SMILES.

Turning to `COc1ccccc1OCC(=O)O[C@H]1CC[C@H](NCc2cc(Br)cc(Br)c2N)CC1` [E/6001, N-(2-amino-3,5-dibromobenzyl)-trans-4-amino-1-(guaiacolglycolyl)-cyclohexane], the LD50 (usually the dose at which mortality reaches 50%) in series [1] (ip) was determined as 390 mg/kg; in series [1] (po, os), 1650 mg/kg; in series [2] (ip), 375 mg/kg; in series [2] (iv), 194 mg/kg; in series [2] (po, os), 3850 mg/kg; in series [3] (ip) it was 532 mg/kg. In addition, the median lethal dose (LD50) in series [3] (po, os) was 18700 mg/kg.

As for `Cc1cccc(OCC(=O)O[C@H]2CC[C@H](NCc3cc(Br)cc(Br)c3N)CC2)c1` [E/6003, N-(2-amino-3,5-dibromobenzyl)-trans-4-amino-1-(m-cresolglycolyl)cyclohexane], the LD50 was 380 mg/kg in series [1] (ip); 1600 mg/kg in series [1] (po, os); 360 mg/kg in series [2] (ip); 187 mg/kg in series [2] (iv); 3700 mg/kg in series [2] (po, os); 510 mg/kg in series [3] (ip). This compound also returned a 50% lethal dose (LD50) in series [3] (po, os) of 18000 mg/kg.

Consider `Nc1c(Br)cc(Br)cc1CN[C@H]1CC[C@H](O)CC1` [Ambroxol Hydrochlorate, N-(2-amino-3,5-dibromobenzyl)-trans-4-amino-cyclohexanol, reference compound], for which the LD50 in series [1] (ip) is 280 mg/kg; in series [1] (po, os), 1180 mg/kg; in series [2] (ip), 268 mg/kg; in series [2] (iv) it was 138 mg/kg; in series [3] (ip), 380 mg/kg; in series [3] (po, os), 13400 mg/kg. The same compound displayed a DL50 in series [4] of 2750 mg/kg.

As for `Cc1ccc(C(C)C)cc1OCC(=O)O[C@H]1CC[C@H](NCc2cc(Br)cc(Br)c2N)CC1` [E/6007, N-(2-amino-3,5-dibromobenzyl)-trans-4-amino-1-(carvacrolglycolyl)cyclohexane], the median lethal dose (LD50) amounted to 410 mg/kg in series [1] (ip); 1700 mg/kg in series [1] (po, os); 390 mg/kg in series [2] (ip); 190 mg/kg in series [2] (iv); 3900 mg/kg in series [2] (po, os); 530 mg/kg in series [3] (ip). Further, in series [3] (po, os), the median lethal dose (LD50) was found to be 18500 mg/kg.

As for `Cc1ccccc1OCC(=O)O[C@H]1CC[C@H](NCc2cc(Br)cc(Br)c2N)CC1` [E/6004], the median lethal dose (LD50) in series [1] (ip) worked out at 375 mg/kg; in series [1] (po, os), 1610 mg/kg; in series [2] (ip), 365 mg/kg; in series [2] (iv) it was 187 mg/kg; in series [2] (po, os), 3700 mg/kg; in series [3] (ip) it was 500 mg/kg. The same compound came in with a 50% lethal dose (LD50) in series [3] (po, os) of 18000 mg/kg.

Consider `Cc1ccc(OCC(=O)O[C@H]2CC[C@H](NCc3cc(Br)cc(Br)c3N)CC2)cc1` [E/6005], for which the 50% lethal dose (LD50) in series [1] (ip) amounted to 380 mg/kg; in series [1] (po, os), 1600 mg/kg; in series [2] (ip), 360 mg/kg; in series [2] (iv), 180 mg/kg; in series [2] (po, os), 3700 mg/kg; in series [3] (ip) it was 500 mg/kg. Besides, in series [3] (po, os), the LD50 is 17800 mg/kg.

Consider `Cc1ccc(C(C)C)c(OCC(=O)O[C@H]2CC[C@H](NCc3cc(Br)cc(Br)c3N)CC2)c1` [E/6006, N-(2-amino-3,5-dibromobenzyl)-trans-4-amino-1-(thymolglycolyl)cyclohexane], for which the 50% lethal dose (LD50) in series [1] (ip) worked out at 400 mg/kg; in series [1] (po, os), 1680 mg/kg; in series [2] (ip), 380 mg/kg; in series [2] (iv), 197 mg/kg; in series [2] (po, os) it was 3900 mg/kg; in series [3] (ip), 540 mg/kg. For the same compound, the 50% lethal dose (LD50) in series [3] (po, os) came to 19000 mg/kg.

Consider `COc1cc(C)ccc1OCC(=O)O[C@H]1CC[C@H](NCc2cc(Br)cc(Br)c2N)CC1` [E/6002], for which the median lethal dose (LD50) in series [1] (ip) came out at 400 mg/kg; in series [1] (po, os) it was 1700 mg/kg; in series [2] (ip) it was 390 mg/kg; in series [2] (iv), 201 mg/kg; in series [2] (po, os), 4000 mg/kg; in series [3] (ip) it was 550 mg/kg. In addition, the 50% lethal dose (LD50) in series [3] (po, os) is 19600 mg/kg.

For the origin of these results see patent publication US4528393A, “Derivatives having expectorant activity, the procedure for their preparation and the pharmaceutical compositions which contain them” (Magis Farmaceutici S.R.L., priority 1983, dated 1985).
